The values that follow come from US20080214678A1, “Biopesticide Comprising a Composition Rich in Diallyl Polysulphides” (priority 2003, published 2008).

Values after ≈ are worked out from the molar mass of the structure shown. Read-outs that look alike come from different tables or passages of the source.

Data set [1] concerns clothes moth Tineola bisselliella. In words: whole plant or invertebrate. The conditions noted are these: for insecticidal activity: closed space, insects tested; for LC50: Tineola bisselliella. The data set is classed as in vivo. As to the method: (§1) The pesticidal activity of the extracts is measured in a closed space on adult insects. Each value represents the mean of three experiments, each involving 30 insects representative of three different insect orders: • lepidoptera (the clothes moth Tineola bisselliella), • isoptera (the Saintonge termite Reticulitermes santonensis), and • coleoptera (the bean weevil Callosobruchus maculatus)

Data set [2] concerns bean weevil Callosobruchus maculatus. The data set is described as follows: Pesticidal activity in a closed space on adult weevil (LC50). The data set is classed as in vivo. As to the method:
as §1

The conditions of data set [3]: ambient temperature storage; cited from earlier work.
Setting [4] is: adult insects, closed space, 24 h of treatment, NQ = non-quantifiable due to the absence of activity, read-out: Weevil LC50.

For orientation: LC50 means the concentration that kills 50% of the test population. On to `C=CCS[S+]([O-])CC=C` (stereo not shown) [TiA2, allicin], for which the “insecticidal activity” value in data set [1] is reported as “show an insecticidal activity”. The median lethal concentration (LC50) in data set [2] (setting [4]) was determined as 0.16 µg/mL (≈ 0.986 µM). Besides, in data set [3], the “stability at ambient temperature” value is given as “low stability”.

Take `C=CCSSCC=C` [DAS2, diallyl disulfide]: the LC50 in data set [1] (24 h, read-out: Mite LC50) was 0.02 µg/mL (≈ 0.137 µM); in data set [1] (24 h, read-out: Mite LC50 observed), 0.02 µg/mL (≈ 0.137 µM); in data set [1] (read-out: Mite LC50 calculated), 0.02 µg/mL (≈ 0.137 µM); in data set [2] (adult insects, closed space, 24 h, NQ = no activity, read-out: Weevil LC50 observed), 0.5 µg/mL (≈ 3.42 µM); in data set [2] (setting [4]), 0.5 µg/mL (≈ 3.42 µM); in data set [2] (theoretical, from total DASn content compared with DAS2 activity, read-out: Weevil LC50 calculated) it was 0.5 µg/mL (≈ 3.42 µM). The “insecticidal activity” value in data set [1] is on record as “show an insecticidal activity”.
